By pIC50 is commonly meant the IC50 on a negative log10 scale, so that one unit is a factor of ten. A lower pIC50 goes with a large IC50.

The target of the assay is PRS (prolyl-tRNA synthetase) protein, PRS portion of EPRS (Homo sapiens (Human), UniProt P07814). Put plainly: PRS enzyme activity inhibition experiment ([3H]proline, liquid scintillation). Format: biochemical. The settings on record: purified PRS protein, 37° C. for 5 to 10 minutes. As for the experimental part: In order to confirm the biological activities of the compounds prepared in Examples, % inhibition or IC50 values of PRS enzyme ([…]) activities were calculated.
PRS (prolyl-tRNA synthetase) protein, PRS portion of EPRS, sequence (P07814 1007-1512): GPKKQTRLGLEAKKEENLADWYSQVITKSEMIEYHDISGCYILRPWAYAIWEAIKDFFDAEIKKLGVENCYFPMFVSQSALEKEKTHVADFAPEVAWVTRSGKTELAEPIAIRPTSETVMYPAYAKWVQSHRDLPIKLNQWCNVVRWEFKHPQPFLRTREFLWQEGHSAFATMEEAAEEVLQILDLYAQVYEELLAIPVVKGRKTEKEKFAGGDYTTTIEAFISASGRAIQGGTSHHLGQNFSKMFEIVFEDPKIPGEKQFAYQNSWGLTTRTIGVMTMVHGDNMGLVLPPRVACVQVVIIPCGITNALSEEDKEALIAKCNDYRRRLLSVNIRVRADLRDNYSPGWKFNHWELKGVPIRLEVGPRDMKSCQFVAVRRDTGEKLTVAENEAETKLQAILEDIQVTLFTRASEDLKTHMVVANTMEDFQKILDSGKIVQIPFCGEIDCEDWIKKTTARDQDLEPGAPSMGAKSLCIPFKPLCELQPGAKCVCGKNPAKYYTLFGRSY
Specifically, the portion corresponding to PRS in cDNA of EPRS was subcloned, and the obtained high-purity PRS protein was purified and used in the experiment. The compounds (1 μM) prepared in Examples were added into the reaction buffer (20 mM KPO4 (pH 7.4), 6 mM MgAc, 5 mM ATP, […] tRNA, 0.5 mM DTT, […][^3H]proline (1 mCi/mL)) and allowed to react at 37° C. for 5 to 10 minutes. The reaction was terminated with 3M paper that was in advance dried by addition of 5% TCA. The radioactivity was measured using a liquid scintillation counter.
% Inhibition and IC50 values of the respective compounds were calculated and analyzed using Microsoft Excel or Sigma Plot 8.0. In Tables 1 to 3, the results are divided into A, B and C according to the range of IC50. The case where the derived IC50 is 100 nM or less is represented by “A”, the case where the IC50 is 100 to 500 nM is represented by “B”, and the case where the IC50 is 500 nM or higher is represented by “C”.

SMILES strings stand for the structures. pIC50: −log10 of the molar value.

In the case of `O[C@H]1CCCN[C@@H]1CCCn1cnc2cc(Cl)cc(-c3ccoc3)c21` [Example 104, (2R,3S)-2-(3-(5-chloro-7-(furan-3-yl)-1H-benzo[d]imidazol-1-yl)propyl)piperidin-3-ol], the pIC50 is at least 7.00. The same measure for `O[C@H]1CCCN[C@@H]1CCCn1cnc2cc(Cl)cc(-c3cnn(CC4OCCO4)c3)c21` [Example 95, (2R,3S)-2-(3-(7-(1-((1,3-dioxolan-2-yl)methyl)-1H-pyrazol-4-yl)-5-chloro-1H-benzo[d]imidazol-1-yl)propyl)piperidin-3-ol]: 6.30 to 7.00. In the case of `O[C@H]1CCCN[C@@H]1CCCn1cnc2cncc(Br)c21` [Example 128, (2R,3S)-2-(3-(7-bromo-1H-imidazo[4,5-c]pyridin-1-yl)propyl)piperidin-3-ol] it was at most 6.30; in that of `C/C(=C\[C@H]1NCCC[C@@H]1O)Cn1cnc2cc(Cl)c(Cl)cc21` [Example 223, (2R,3S)-2-((E)-3-(5,6-dichloro-1H-benzo[d]imidazol-1-yl)-2-methylprop-1-en-1-yl)piperidin-3-ol], at most 6.30. The same measure for `O[C@H]1CCCN[C@@H]1CCCn1cnc2nc(Cl)ncc21` [Example 135, (2R,3S)-2-(3-(2-chloro-7H-purin-7-yl)propyl)piperidin-3-ol]: at most 6.30; for `O[C@H]1CCCN[C@@H]1CCCn1cnc2c(Cl)c(F)ccc21` [Example 62, (2R,3S)-2-(3-(4-chloro-5-fluoro-1H-benzo[d]imidazol-1-yl)propyl)piperidin-3-ol]: 6.30 to 7.00; for `Cc1ccc2c(ncn2C/C=C/[C@H]2NCCC[C@@H]2O)c1Cl` [Example 175, (2R,3S)-2-((E)-3-(4-chloro-5-methyl-1H-benzo[d]imidazol-1-yl)prop-1-en-1-yl)piperidin-3-ol]: 6.30 to 7.00. Compound `O=C(O)c1cn(C/C=C/[C@H]2NCCC[C@@H]2O)c2cc(F)ccc12` [Example 208, 6-fluoro-1-((E)-3-((2R,3S)-3-hydroxypiperidin-2-yl)allyl)-1H-indole-3-carboxylic acid] had a pIC50 of at most 6.30.

In the case of `Oc1nc2ccccc2n1CCC[C@H]1NCCC[C@@H]1O` [Example 143, 1-(3-((2R,3S)-3-hydroxypiperidin-2-yl)propyl)-1H-benzo[d]imidazol-2-ol], the pIC50 was at most 6.30. In turn, `O[C@H]1CCCN[C@@H]1/C=C(\F)Cn1cnc2cc(Cl)c(Cl)cc21` [Example 219, (2R,3S)-2-((Z)-3-(5,6-dichloro-1H-benzo[d]imidazol-1-yl)-2-fluoroprop-1-en-1-yl)piperidin-3-ol] showed a pIC50 of at most 6.30. The same measure for `O[C@H]1CCCN[C@@H]1CCCn1cnc2cc(Cl)c(F)cc21` [Example 34, (2R,3S)-2-(3-(5-chloro-6-fluoro-1H-benzo[d]imidazol-1-yl)propyl)piperidin-3-ol]: 6.30 to 7.00; for `O[C@H]1CCCN[C@@H]1/C=C/Cn1ccc2c(Cl)ncnc21` [Example 199, (2R,3S)-2-((E)-3-(4-chloro-7H-pyrrolo[2,3-d]pyrimidin-7-yl)prop-1-en-1-yl)piperidin-3-ol]: at most 6.30; for `O[C@H]1CCCN[C@@H]1CCCn1cnc2cc(Cl)cc(-c3cnn(-c4nccs4)c3)c21` [Example 101, (2R,3S)-2-(3-(5-chloro-7-(1-(thiazol-2-yl)-1H-pyrazol-4-yl)-1H-benzo[d]imidazol-1-yl)propyl)piperidin-3-ol]: at least 7.00. In the case of `O[C@H]1CCCN[C@@H]1CCCn1cnc2cc(F)c(Cl)cc21` [Example 32, (2R,3S)-2-(3-(6-chloro-5-fluoro-1H-benzo[d]imidazol-1-yl)propyl)piperidin-3-ol] it was 6.30 to 7.00. The same measure for `O=[N+]([O-])c1c(Br)ccc2c1ncn2CCC[C@H]1NCCC[C@@H]1O` [Example 75, (2R,3S)-2-(3-(5-bromo-4-nitro-1H-benzo[d]imidazol-1-yl)propyl)piperidin-3-ol]: at most 6.30. For the compound `COC(=O)c1cn(CCC[C@H]2NCCC[C@@H]2O)c2cc(Cl)ccc12` [Example 153, methyl 6-chloro-1-(3-((2R,3S)-3-hydroxypiperidin-2-yl)propyl)-1H-indole-3-carboxylate], the pIC50 is 6.30 to 7.00.

`O[C@H]1CCCN[C@@H]1CCCn1cnc2c(Br)cccc21` [Example 2, (2R,3S)-2-(3-(4-bromo-1H-benzo[d]imidazol-1-yl)propyl)piperidin-3-ol] had a pIC50 of 6.30 to 7.00.

`Cn1c(=O)[nH]c2c(ncn2CCC[C@H]2NCCC[C@@H]2O)c1=O` [Example 164, 9-(3-((2R,3S)-3-hydroxypiperidin-2-yl)propyl)-1-methyl-1H-purine-2,6(3H,9H)-dione]: the pIC50 is at most 6.30. In the case of `O[C@H]1CCCN[C@@H]1CCCn1cnc2cccc(Br)c21` [Example 5, (2R,3S)-2-(3-(7-bromo-1H-benzo[d]imidazol-1-yl)propyl)piperidin-3-ol], the pIC50 was 6.30 to 7.00. The same measure for `O[C@H]1CCCN[C@@H]1/C=C/Cn1cnc2c(Cl)c(-c3cccc(Cl)c3)cnc21` [Example 185, (2R,3S)-2-((E)-3-(7-chloro-6-(3-chlorophenyl)-3H-imidazo[4,5-b]pyridin-3-yl)prop-1-en-1-yl)piperidin-3-ol]: at most 6.30. The same measure for `Cc1c(Br)cnc2c1ncn2CCC[C@H]1NCCC[C@@H]1O` [Example 132, (2R,3S)-2-(3-(6-bromo-7-methyl-3H-imidazo[4,5-b]pyridin-3-yl)propyl)piperidin-3-ol]: 6.30 to 7.00; for `O[C@H]1CCCN[C@@H]1CCCn1cnc2cccc(Cl)c21` [Example 12, (2R,3S)-2-(3-(7-chloro-1H-benzo[d]imidazol-1-yl)propyl)piperidin-3-ol]: 6.30 to 7.00. The same measure for `COC(=O)c1cn(C/C=C/[C@H]2NCCC[C@@H]2O)c2cccc(Cl)c12` [Example 210, methyl 4-chloro-1-((E)-3-((2R,3S)-3-hydroxypiperidin-2-yl)allyl)-1H-indole-3-carboxylate]: at most 6.30. `O[C@H]1CCCN[C@@H]1CCCn1cnc2cc(Cl)ncc21` [Example 123, (2R,3S)-2-(3-(6-chloro-3H-imidazo[4,5-c]pyridin-3-yl)propyl)piperidin-3-ol] gave a pIC50 of at most 6.30. As to `CN(C)c1ncnc2c1ncn2CCC[C@H]1NCCC[C@@H]1O` [Example 137, (2R,3S)-2-(3-(6-(dimethylamino)-9H-purin-9-yl)propyl)piperidin-3-ol], the pIC50 is at most 6.30. The same measure for `O[C@H]1CCCN[C@@H]1CCCn1cnc2cccc(-c3ccccc3F)c21` [Example 26, (2R,3S)-2-(3-(7-(2-fluorophenyl)-1H-benzo[d]imidazol-1-yl)propyl)piperidin-3-ol]: at most 6.30. The same measure for `O[C@H]1CCCN[C@@H]1CCCn1cnc2c(F)c(F)ccc21` [Example 49, (2R,3S)-2-(3-(4,5-difluoro-1H-benzo[d]imidazol-1-yl)propyl)piperidin-3-ol]: 6.30 to 7.00; for `O[C@H]1CCCN[C@@H]1CCCn1cnc2cc(Cl)cc(Cl)c21` [Example 80, (2R,3S)-2-(3-(5,7-dichloro-1H-benzo[d]imidazol-1-yl)propyl)piperidin-3-ol]: at least 7.00. The same measure for `O[C@H]1CCCN[C@@H]1CCCn1cnc2c(N3CCCCC3)cccc21` [Example 19, (2R,3S)-2-(3-(4-(piperidin-1-yl)-1H-benzo[d]imidazol-1-yl)propyl)piperidin-3-ol]: at most 6.30. For the compound `O[C@H]1CCCN[C@@H]1CCCn1cnc2nc(Br)ccc21` [Example 119, (2R,3S)-2-(3-(5-bromo-1H-imidazo[4,5-b]pyridin-1-yl)propyl)piperidin-3-ol], the pIC50 is at most 6.30. The same measure for `O[C@H]1CCCN[C@@H]1CCCn1cnc2cccc(C(F)(F)F)c21` [Example 16, (2R,3S)-2-(3-(7-(trifluoromethyl)-1H-benzo[d]imidazol-1-yl)propyl)piperidin-3-ol]: 6.30 to 7.00.

With `COC(=O)c1cn(C/C=C/[C@H]2NCCC[C@@H]2O)c2cc(Cl)ccc12` [Example 211, methyl 6-chloro-1-((E)-3-((2R,3S)-3-hydroxypiperidin-2-yl)allyl)-1H-indole-3-carboxylate], the pIC50 was at most 6.30. In the case of `Cc1cc(Cl)cc2c1ncn2CCC[C@H]1NCCC[C@@H]1O` [Example 61, (2R,3S)-2-(3-(6-chloro-4-methyl-1H-benzo[d]imidazol-1-yl)propyl)piperidin-3-ol] it was at least 7.00. The same measure for `Cc1cc(Br)cc2c1ncn2CCC[C@H]1NCCC[C@@H]1O` [Example 63, (2R,3S)-2-(3-(6-bromo-4-methyl-1H-benzo[d]imidazol-1-yl)propyl)piperidin-3-ol]: at least 7.00; for `Cc1c(F)ccc2c1ncn2CC#C[C@H]1NCCC[C@@H]1O` [Example 229, (2R,3S)-2-(3-(5-fluoro-4-methyl-1H-benzo[d]imidazol-1-yl)prop-1-yn-1-yl)piperidin-3-ol]: at most 6.30; for `Cc1c(Cl)cnc2c1ncn2C/C=C/[C@H]1NCCC[C@@H]1O` [Example 188, (2R,3S)-2-((E)-3-(6-chloro-7-methyl-3H-imidazo[4,5-b]pyridin-3-yl)prop-1-en-1-yl)piperidin-3-ol]: at most 6.30.

`O[C@H]1CCCN[C@@H]1CCCn1cnc2ccc(-c3cn[nH]c3)cc21` [Example 30, (2R,3S)-2-(3-(6-(1H-pyrazol-4-yl)-1H-benzo[d]imidazol-1-yl)propyl)piperidin-3-ol] had a pIC50 of 6.30 to 7.00.

Values taken from patent publication US10981917B2, “Heterocyclic compound, its preparation method, and pharmaceutical composition comprising the same” (Daewoong Pharmaceutical Co., Ltd., priority 2017, dated 2021).
